± gives the standard deviation of the averaged measurements.
What was measured:
Danio rerio embryo [1] = tested on: Danio rerio embryo
Method: (§1)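 Zebrafish embryos (UFZ-OBI strain) were exposed from 2 hpf for 48 h (2 dpf) or 96 h (4 dpf) at 28 °C; spontaneous tail coiling was scored at 25 hpf. Morphological features from automated image analysis (FishInspector), heart rate and locomotor response were fitted with drc models. Quantal endpoints were dichotomised at 2.5 SD from controls and fitted with a log-logistic model; heart rate, pigmentation and STC were normalised to the replicate control mean. Betamethasone was tested as betamethasone dipropionate, diflorasone as diflorasone diacetate.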

Danio rerio embryo [2] = conditions: exposure time: 4 dpf
Method: as §1

Danio rerio embryo [3] = experiment: EC50 Curvature_Increase; conditions: exposure time: 2 dpf
Method: as §1

Danio rerio embryo [4] = experiment: EC50 Body length_Decrease
Method: as §1

Danio rerio embryo [5] = experiment: EC50 Bladder size_Decrease; conditions: exposure time: 4 dpf
Method: as §1

Danio rerio embryo [6] = experiment: EC50 Pericard size_Increase; conditions: exposure time: 4 dpf
Method: as §1

Danio rerio embryo [7] = experiment: EC50 Yolk sac size_Increase; conditions: exposure time: 4 dpf
Method: as §1

Danio rerio embryo [8] = experiment: EC50 Eye-jaw distance_Decrease; conditions: exposure time: 4 dpf
Method: as §1

Danio rerio embryo [9] = experiment: EC50 Otolith-eye distance_Decrease; conditions: exposure time: 4 dpf
Method: as §1

Danio rerio embryo [10] = experiment: EC10 LMR dark; higher = less potent; conditions: exposure time: 4 dpf
Method: as §1

Danio rerio embryo [11] = experiment: EC20 LMR dark; higher = less potent; conditions: exposure time: 4 dpf
Method: as §1

Danio rerio embryo [12] = experiment: EC20 Any effect; higher = less potent
Method: as §1

Danio rerio embryo [13] = experiment: EC10 Any effect; higher = less potent
Method: as §1

Danio rerio embryo [14] = experiment: EC10 Curvature_Increase; higher = less potent; conditions: exposure time: 2 dpf
Method: as §1

Danio rerio embryo [15] = experiment: EC20 Curvature_Increase; higher = less potent; conditions: exposure time: 2 dpf
Method: as §1

Danio rerio embryo [16] = experiment: EC20 Body length_Decrease; higher = less potent
Method: as §1

Danio rerio embryo [17] = experiment: EC10 Body length_Decrease; higher = less potent
Method: as §1

Danio rerio embryo [18] = experiment: EC10 Bladder size_Decrease; higher = less potent; conditions: exposure time: 4 dpf
Method: as §1

Danio rerio embryo [19] = experiment: EC20 Bladder size_Decrease; higher = less potent; conditions: exposure time: 4 dpf
Method: as §1

Danio rerio embryo [20] = experiment: EC20 Yolk sac size_Increase; higher = less potent; conditions: exposure time: 4 dpf
Method: as §1

Danio rerio embryo [21] = experiment: EC20 Pericard size_Increase; higher = less potent; conditions: exposure time: 4 dpf
Method: as §1

Danio rerio embryo [22] = experiment: EC10 Yolk sac size_Increase; higher = less potent; conditions: exposure time: 4 dpf
Method: as §1

Danio rerio embryo [23] = experiment: EC10 Pericard size_Increase; higher = less potent; conditions: exposure time: 4 dpf
Method: as §1

Danio rerio embryo [24] = experiment: EC20 Eye-jaw distance_Decrease; higher = less potent; conditions: exposure time: 4 dpf
Method: as §1

Danio rerio embryo [25] = experiment: EC10 Eye-jaw distance_Decrease; higher = less potent; conditions: exposure time: 4 dpf
Method: as §1

Danio rerio embryo [26] = experiment: EC20 Head trunk angle_Decrease; higher = less potent; conditions: exposure time: 2 dpf
Method: as §1

Danio rerio embryo [27] = experiment: EC20 Otolith-eye distance_Decrease; higher = less potent; conditions: exposure time: 4 dpf
Method: as §1

Danio rerio embryo [28] = experiment: EC10 Otolith-eye distance_Decrease; higher = less potent; conditions: exposure time: 4 dpf
Method: as §1

Danio rerio embryo [29] = experiment: spontaneous tail coiling frequency (coils/min/embryo); higher = more spontaneous movement; conditions: 25 hpf
Method: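 Spontaneous tail coilings of zebrafish embryos exposed from 2 hpf were recorded at 24-25 hpf in 1-min videos and detected by a KNIME workflow from grey-value variance. Betamethasone was tested as the dipropionate, diflorasone as the diacetate.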

CCOC(=O)N1CCC(=C2c3ccc(Cl)cc3CCc3cccnc32)CC1 [Loratadine]
Conditions | EC10 Any effect [µM] | EC10 Body length Decrease [µM] | EC20 Any effect [µM] | EC20 Body length Decrease [µM] | EC50 Any effect [µM] | EC50 Body length Decrease [µM] | EC50 STC decrease [µM] | spontaneous tail coiling frequency
Danio rerio embryo [1], exposure time: 2 dpf | – | – | – | – | 6.4 | – | – | –
Danio rerio embryo [1], exposure time: 4 dpf | – | – | – | – | 0.438 | – | – | –
Danio rerio embryo [1], exposure time: 25 h | – | – | – | – | – | – | 6.63 | –
Danio rerio embryo [4], exposure time: 2 dpf | – | – | – | – | – | 7.83 | – | –
Danio rerio embryo [4], exposure time: 4 dpf | – | – | – | – | – | 0.442 | – | –
Danio rerio embryo [12], exposure time: 2 dpf | – | – | 5.01 | – | – | – | – | –
Danio rerio embryo [12], exposure time: 4 dpf | – | – | 0.398 | – | – | – | – | –
Danio rerio embryo [13], exposure time: 2 dpf | 4.34 | – | – | – | – | – | – | –
Danio rerio embryo [13], exposure time: 4 dpf | 0.376 | – | – | – | – | – | – | –
Danio rerio embryo [16], exposure time: 2 dpf | – | – | – | 6 | – | – | – | –
Danio rerio embryo [16], exposure time: 4 dpf | – | – | – | 0.404 | – | – | – | –
Danio rerio embryo [17], exposure time: 2 dpf | – | 5.13 | – | – | – | – | – | –
Danio rerio embryo [17], exposure time: 4 dpf | – | 0.383 | – | – | – | – | – | –
Danio rerio embryo [29], 0.155 µM | – | – | – | – | – | – | – | 2.97
Danio rerio embryo [29], 0.31 µM | – | – | – | – | – | – | – | 1.28
Danio rerio embryo [29], 0.61 µM | – | – | – | – | – | – | – | 1.66
Danio rerio embryo [29], 1.22 µM | – | – | – | – | – | – | – | 1.82 ± 0.75
Danio rerio embryo [29], 2.45 µM | – | – | – | – | – | – | – | 2.58 ± 0.62
Danio rerio embryo [29], 4.9 µM | – | – | – | – | – | – | – | 1.79 ± 0.028
Danio rerio embryo [29], 9.79 µM | – | – | – | – | – | – | – | 0.505 ± 0.32

Conditions | EC10 Bladder size Decrease [µM] | EC10 Curvature Increase [µM] | EC10 Eye-jaw distance Decrease [µM] | EC10 LMR dark [µM] | EC10 Otolith-eye distance Decrease [µM] | EC10 Pericard size Increase [µM] | EC10 Yolk sac size Increase [µM] | EC20 Bladder size Decrease [µM] | EC20 Curvature Increase [µM] | EC20 Eye-jaw distance Decrease [µM] | EC20 Head trunk angle Decrease [µM] | EC20 LMR dark [µM] | EC20 Otolith-eye distance Decrease [µM] | EC20 Pericard size Increase [µM] | EC20 Yolk sac size Increase [µM] | EC50 Bladder size Decrease [µM] | EC50 Curvature Increase [µM] | EC50 Eye-jaw distance Decrease [µM] | EC50 LMR dark [µM] | EC50 Otolith-eye distance Decrease [µM] | EC50 Pericard size Increase [µM] | EC50 Yolk sac size Increase [µM]
Danio rerio embryo [2] | – | – | – | – | – | – | – | – | – | – | – | – | – | – | – | – | – | – | 0.399 | – | – | –
Danio rerio embryo [3] | – | – | – | – | – | – | – | – | – | – | – | – | – | – | – | – | 6.62 | – | – | – | – | –
Danio rerio embryo [5] | – | – | – | – | – | – | – | – | – | – | – | – | – | – | – | 0.282 | – | – | – | – | – | –
Danio rerio embryo [6] | – | – | – | – | – | – | – | – | – | – | – | – | – | – | – | – | – | – | – | – | 10.2 | –
Danio rerio embryo [7] | – | – | – | – | – | – | – | – | – | – | – | – | – | – | – | – | – | – | – | – | – | 11.6
Danio rerio embryo [8] | – | – | – | – | – | – | – | – | – | – | – | – | – | – | – | – | – | 6.86 | – | – | – | –
Danio rerio embryo [9] | – | – | – | – | – | – | – | – | – | – | – | – | – | – | – | – | – | – | – | 5.49 | – | –
Danio rerio embryo [10] | – | – | – | 0.279 | – | – | – | – | – | – | – | – | – | – | – | – | – | – | – | – | – | –
Danio rerio embryo [11] | – | – | – | – | – | – | – | – | – | – | – | 0.318 | – | – | – | – | – | – | – | – | – | –
Danio rerio embryo [14] | – | 3.56 | – | – | – | – | – | – | – | – | – | – | – | – | – | – | – | – | – | – | – | –
Danio rerio embryo [15] | – | – | – | – | – | – | – | – | 4.48 | – | – | – | – | – | – | – | – | – | – | – | – | –
Danio rerio embryo [18] | 0.165 | – | – | – | – | – | – | – | – | – | – | – | – | – | – | – | – | – | – | – | – | –
Danio rerio embryo [19] | – | – | – | – | – | – | – | 0.201 | – | – | – | – | – | – | – | – | – | – | – | – | – | –
Danio rerio embryo [20] | – | – | – | – | – | – | – | – | – | – | – | – | – | – | 6.74 | – | – | – | – | – | – | –
Danio rerio embryo [21] | – | – | – | – | – | – | – | – | – | – | – | – | – | 4.72 | – | – | – | – | – | – | – | –
Danio rerio embryo [22] | – | – | – | – | – | – | 4.91 | – | – | – | – | – | – | – | – | – | – | – | – | – | – | –
Danio rerio embryo [23] | – | – | – | – | – | 3.01 | – | – | – | – | – | – | – | – | – | – | – | – | – | – | – | –
Danio rerio embryo [24] | – | – | – | – | – | – | – | – | – | 5.67 | – | – | – | – | – | – | – | – | – | – | – | –
Danio rerio embryo [25] | – | – | 5.07 | – | – | – | – | – | – | – | – | – | – | – | – | – | – | – | – | – | – | –
Danio rerio embryo [26] | – | – | – | – | – | – | – | – | – | – | 5.06 | – | – | – | – | – | – | – | – | – | – | –
Danio rerio embryo [27] | – | – | – | – | – | – | – | – | – | – | – | – | 4.62 | – | – | – | – | – | – | – | – | –
Danio rerio embryo [28] | – | – | – | – | 4.17 | – | – | – | – | – | – | – | – | – | – | – | – | – | – | – | – | –

Reference: the supplement of paper PMC9013687
